Assay [1] addresses T1, IRAK-4 (Homo sapiens, UniProt Q9NWZ3).
T1 construct: His6 (N); Dr.Jaekel
T1 sequence (Q9NWZ3 1-460): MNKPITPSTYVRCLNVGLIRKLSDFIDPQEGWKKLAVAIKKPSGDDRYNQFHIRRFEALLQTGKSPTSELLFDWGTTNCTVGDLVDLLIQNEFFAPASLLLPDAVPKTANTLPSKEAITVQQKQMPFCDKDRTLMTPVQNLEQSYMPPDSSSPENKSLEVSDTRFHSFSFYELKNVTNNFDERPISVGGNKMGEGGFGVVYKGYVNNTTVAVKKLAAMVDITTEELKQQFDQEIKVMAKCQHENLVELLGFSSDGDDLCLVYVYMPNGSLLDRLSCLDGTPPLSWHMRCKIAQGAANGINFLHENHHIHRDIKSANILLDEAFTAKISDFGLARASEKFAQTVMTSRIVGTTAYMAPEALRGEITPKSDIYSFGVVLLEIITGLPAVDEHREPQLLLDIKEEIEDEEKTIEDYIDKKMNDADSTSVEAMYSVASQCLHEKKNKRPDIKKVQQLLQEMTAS
Briefly: Test for the inhibition of IRAK4 (flashplate, 33P-ATP). Type of assay: biochemical. The conditions noted are these: enzyme. The method, boiled down:
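His6-IRAK4 (7.3 nM) with biotinylated STK substrate 1 peptide (300 nM) and 10 μM ATP spiked with ^33P-ATP, incubated 180 min at 22° C. Incorporated radioactivity counted; blank from 1 μM staurosporine subtracted, activity expressed as % of no-compound control, IC50 by statistical fit.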

The target in another assay is T2, IRAK-1 (Homo sapiens, UniProt P51617).
T2 construct: His6 (N); Dr.Jaekel Pool B, 232Y08C1.IRK
T2 sequence (P51617 whole entry, species assumed): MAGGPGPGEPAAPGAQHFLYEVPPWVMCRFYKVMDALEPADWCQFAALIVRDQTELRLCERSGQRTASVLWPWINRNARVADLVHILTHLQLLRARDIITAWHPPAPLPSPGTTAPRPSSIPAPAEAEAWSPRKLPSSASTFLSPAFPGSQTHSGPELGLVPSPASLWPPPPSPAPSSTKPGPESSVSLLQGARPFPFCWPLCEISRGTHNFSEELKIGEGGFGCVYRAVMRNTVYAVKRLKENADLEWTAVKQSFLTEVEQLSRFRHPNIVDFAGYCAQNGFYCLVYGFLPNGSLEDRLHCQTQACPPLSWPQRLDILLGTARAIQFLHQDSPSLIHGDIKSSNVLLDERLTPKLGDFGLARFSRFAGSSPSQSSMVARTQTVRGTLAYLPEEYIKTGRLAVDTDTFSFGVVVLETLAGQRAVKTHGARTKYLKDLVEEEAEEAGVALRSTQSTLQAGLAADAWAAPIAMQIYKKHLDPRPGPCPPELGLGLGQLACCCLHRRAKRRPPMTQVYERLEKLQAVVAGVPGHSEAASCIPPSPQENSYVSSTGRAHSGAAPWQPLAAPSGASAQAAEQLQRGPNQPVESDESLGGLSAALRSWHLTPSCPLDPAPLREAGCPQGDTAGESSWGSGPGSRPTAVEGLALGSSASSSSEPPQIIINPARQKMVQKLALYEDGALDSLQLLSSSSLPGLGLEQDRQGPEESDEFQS
The experiment in a line: Test for the inhibition of IRAK1 (autophosphorylation, flashplate). Type of assay: biochemical. As to conditions: enzyme. The method, boiled down:
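His6-IRAK1 (5.1 nM) autophosphorylation with 1 μM ATP plus ^33P-ATP, 180 min at 22° C, read as incorporated radioactivity. Blank with 1 μM staurosporin was subtracted and activity expressed as % of no-compound control. IC50 derived from the dilution series.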

Assay [2] concerns the target T1, IRAK-4. Briefly: IC50 IRAK-4 (cell). Type of assay: cell-based.

The term IC50 denotes the concentration at which inhibition is half-maximal. Low values mean greater potency in that assay, high ones weaker potency in that assay.

Take `COc1ccc2nc(-c3cc(-c4cnn(C(C)C)c4)cnc3N)[nH]c2c1` [Compound A107, 5-(1-Isopropyl-1H-pyrazol-4-yl)-3-(6-methoxy-1H-benzimidazol-2-yl)pyridin-2-ylamine]: the 50% inhibitory concentration (IC50) at IRAK-4 [1] lay in the range of 1 to 100 nM; against IRAK-1, 1 to 100 nM; on IRAK-4 [2], 100 to 10000 nM.

The values above are taken from patent US8648201B2, “Aminopyridine derivatives for treating tumors and inflammatory diseases” (MERCK PATENT GmbH, priority 2009, dated 2014).
